# From paper PMC11320734 (ACS Pharmacology & Translational Science, 2024)
# “Also recorded” adds a separate entry of the source. Read-outs that look alike come from different tables or passages of the source.
# What was measured:
# [1] = target: hCB1R (Homo sapiens, UniProt P21554); experiment: cell-based; settings: Table 1; mean ± SD; read-out: EC50 hCB1R (cAMP assay)
# [2] = target: ABHD6 (Homo sapiens, UniProt Q9BV23); experiment: Endocannabinoid target profiling: ABHD6; type: biochemical
# [3] = target: GPR55 (Homo sapiens, UniProt Q9Y2T6); experiment: Endocannabinoid target profiling: GPR55; settings: Table S1; read-out: GPR55 (Ki, IC50)
# GPR55, sequence (Q9Y2T6 whole entry, species assumed): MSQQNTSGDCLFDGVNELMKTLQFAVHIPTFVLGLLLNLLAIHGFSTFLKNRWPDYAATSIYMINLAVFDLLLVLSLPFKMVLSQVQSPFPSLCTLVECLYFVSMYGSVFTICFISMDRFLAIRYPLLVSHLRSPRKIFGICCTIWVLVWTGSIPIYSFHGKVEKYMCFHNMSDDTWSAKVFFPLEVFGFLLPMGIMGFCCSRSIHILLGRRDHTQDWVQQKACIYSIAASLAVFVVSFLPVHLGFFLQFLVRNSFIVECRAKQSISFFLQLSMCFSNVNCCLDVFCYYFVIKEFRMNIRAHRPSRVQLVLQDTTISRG
# [4] = target: T1, mouse P-gp (Mus musculus, UniProt P21447); experiment: P-gp assay in transfected LLC-PK1 cells; type: in vitro ADME; settings: read-out: P-gp transporter ER mouse
# T1 construct: expressed in transfected cells; host or cells: LLC-PK1 (porcine kidney epithelial) cells
# T1 sequence (P21447 whole entry): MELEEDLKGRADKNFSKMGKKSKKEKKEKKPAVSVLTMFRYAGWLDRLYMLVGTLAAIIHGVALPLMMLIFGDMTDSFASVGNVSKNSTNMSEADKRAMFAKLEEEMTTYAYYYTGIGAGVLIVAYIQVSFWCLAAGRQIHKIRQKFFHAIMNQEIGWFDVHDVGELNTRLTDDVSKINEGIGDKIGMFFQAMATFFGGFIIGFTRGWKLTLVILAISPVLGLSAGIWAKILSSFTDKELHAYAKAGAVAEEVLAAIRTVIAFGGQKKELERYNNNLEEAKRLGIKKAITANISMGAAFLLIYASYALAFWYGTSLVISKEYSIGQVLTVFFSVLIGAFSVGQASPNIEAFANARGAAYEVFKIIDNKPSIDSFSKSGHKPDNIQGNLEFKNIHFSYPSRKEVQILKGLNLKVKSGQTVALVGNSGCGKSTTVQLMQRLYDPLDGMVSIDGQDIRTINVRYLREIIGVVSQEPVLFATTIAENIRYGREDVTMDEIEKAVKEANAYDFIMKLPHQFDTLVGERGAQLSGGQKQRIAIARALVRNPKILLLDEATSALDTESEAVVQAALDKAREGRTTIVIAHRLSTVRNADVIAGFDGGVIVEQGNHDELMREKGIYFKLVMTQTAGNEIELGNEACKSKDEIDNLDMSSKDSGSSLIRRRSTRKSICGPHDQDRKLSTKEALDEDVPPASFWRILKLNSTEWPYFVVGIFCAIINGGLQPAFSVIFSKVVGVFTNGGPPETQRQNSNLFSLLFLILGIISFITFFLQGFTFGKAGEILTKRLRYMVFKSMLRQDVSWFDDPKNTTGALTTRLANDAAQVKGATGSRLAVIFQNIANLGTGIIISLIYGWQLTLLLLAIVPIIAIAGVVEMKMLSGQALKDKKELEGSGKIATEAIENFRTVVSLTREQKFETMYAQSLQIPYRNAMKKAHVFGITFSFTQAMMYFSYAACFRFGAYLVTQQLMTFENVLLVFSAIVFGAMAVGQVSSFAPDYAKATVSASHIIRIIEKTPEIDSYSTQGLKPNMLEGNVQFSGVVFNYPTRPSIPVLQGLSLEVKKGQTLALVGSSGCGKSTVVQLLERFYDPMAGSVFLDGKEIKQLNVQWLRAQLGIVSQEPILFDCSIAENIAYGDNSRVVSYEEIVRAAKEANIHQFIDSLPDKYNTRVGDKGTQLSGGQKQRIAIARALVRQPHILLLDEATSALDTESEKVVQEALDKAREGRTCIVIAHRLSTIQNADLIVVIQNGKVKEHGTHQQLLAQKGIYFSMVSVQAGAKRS
# Protocol: The general permeability of the compound was assessed using the parallel artificial membrane permeability (PAMPA) assay and the permeability-glycoprotein (P-gp) assay was used to specifically test for brain penetration. PAMPA data were generated as previously reported by our group.[44] The P-gp assay, which evaluates the brain penetration of test compounds, was performed as described elsewhere.[45] Briefly, transfected porcine kidney epithelial (LLC-PK1) cells expressing human or mouse P-gp were cultured on 96-well semipermeable filter membrane plates (Millipore, Darmstadt, Germany). Cells formed a polarized monolayer with tight junctions that acted as a barrier between apical and basolateral compartments. P-gp was expressed in the apical-facing membrane of the monolayer (tightness confirmed using Lucifer yellow). […] The effect of P-gp was measured by expressing the efflux ratio of the unidirectional A > B and B > A Papp values. The mean permeability (A > B and B > A Papp) was determined in the absence of P-gp via the addition of the selective P-gp inhibitor, tariquidar.
# [5] = GSH adduct formation; type: in vitro ADME, human
# Protocol: Cytochrome P450 (CYP) assays were conducted as previously described.[41] In brief, RNB-61 was incubated at a range of concentrations with the following components: pooled human liver microsomes, CYP probe substrate around the reported Km, and NADPH with a final concentration: 1 mM in 100 mM sodium phosphate buffer (pH 7.4). The conditions were optimized for a linear metabolic rate for the probe substrate reactions. The analysis of the samples was carried out by LC-MS/MS. The assays generated two endpoints: IC50 (μM) and percent inhibition at the highest acceptable test concentration (typically 50 μM; lower if the highest concentration data are rejected due to insolubility). […] (GSH) adduct formation data was assessed as reported in a previous study.[42] Briefly, RNB-61 was incubated with human liver microsomes to form reactive metabolites, and glutathione was added as a nucleophile to convert the reactive metabolites into stable conjugates that could be analyzed by MS.
# [6] = test system: P-gp; experiment: Brain penetration study with/without P-gp inhibitor tariquidar; type: in vivo, male C57/BL6 mice; settings: male, C57/BL6, mouse, with tariquidar 5 mg kg^–1 i.v. bolus, 30 min prior to RNB-61
# Protocol: To characterize the pharmacokinetic behavior of RNB-61, studies in rodents were conducted at the in vivo facility of F. Hoffmann-La Roche Ltd. (Basel, Switzerland). The plasma-concentration time profile was studied in rodents after single-dose RNB-61 administration by oral gavage (p.o. microsuspension excipients 7.5% gelatin/0.62% NaCl) and intravenous bolus injection (i.v. solution, excipients NMP:NaCl (30:70)). Three groups of male Wistar rats (n = 2 per group) were administered RNB-61 either at 1 mg kg^–1 i.v., 3 mg kg^–1 p.o., or 26 mg kg^–1 p.o. Plasma samples were drawn at 0.083, 0.25, 0.5, 1, 2, 4, 8, and 24 postdose in the i.v. group and at 0.25, 0.5, 0.75, 1.5, 3, 5, 8, and 24 h postdose in the p.o. groups. The samples were analyzed for RNB-61 concentration by LC/MS-MS. For the LC/MS-MS analysis, and the samples were prepared by adding 100 uL to 400 uL ACN with ISTD (100 ng/mL Bosantan in ACN/MeOH 1/1), stirring, and centrifuging (4000 rpm, 65’). 100 uL of the supernatant were pipetted and diluted with 400 μL H2O at pH 3. The analytes were separated on a Restek C18 column (5 μm, 1.0 × 3 mm). The mobile phase consisted of water containing 0.1% HCOOH as solvent A and ACN containing 0.1% HCOOH as solvent B. The gradient curve starting with 5% B was changed to 90% B between 0.4 and 0.6 min and further increased to 95% B between 0.6 and 1.2 min. This was maintained until 1.4 min and then reduced and kept at 5% B between 1.45 and 2.0 min. The mass spectrometer was operated in the positive mode. All LC-MS/MS was done using the Agilent RapidFire Analyzer software (version 4.3). The pharmacokinetic parameters were estimated by noncompartmental analysis in the Certara WinNonlin software (version 5.3). A similar study design was run in mice with three groups receiving 2 mg kg^–1 i.v., 4 mg kg^–1 p.o., or 26 mg kg^–1 p.o., and plasma sampling occurring in a composite profile (n = 2 for each time point) up to 7 or 24 h postdose. Male C57/BL6 mice (n = 5 per group) were used to study the influence of P-gp efflux on brain penetration. Two groups of mice were administered RNB-61 by i.v. bolus injection at 1 mg kg^–1 (2 groups). In order to block P-gp activity, an i.v. bolus of 5 mg kg^–1 tariquidar[46] was injected into one group 30 min prior to RNB-61. Plasma was collected at 0.083, 0.25, 0.5, 2, 4, and 7 h postdose in a composite profile. Brain, CSF, and vitreous body were collected at terminal time points 0.5, 2, 4, and 7 h postdose.
# [7] = target: human wild type CB2R (Homo sapiens, UniProt P34972); experiment: cAMP assay in CHO cells; type: cell-based; design: expressed in transfected cells; host or cells: CHO cells
# human wild type CB2R, sequence (P34972 whole entry): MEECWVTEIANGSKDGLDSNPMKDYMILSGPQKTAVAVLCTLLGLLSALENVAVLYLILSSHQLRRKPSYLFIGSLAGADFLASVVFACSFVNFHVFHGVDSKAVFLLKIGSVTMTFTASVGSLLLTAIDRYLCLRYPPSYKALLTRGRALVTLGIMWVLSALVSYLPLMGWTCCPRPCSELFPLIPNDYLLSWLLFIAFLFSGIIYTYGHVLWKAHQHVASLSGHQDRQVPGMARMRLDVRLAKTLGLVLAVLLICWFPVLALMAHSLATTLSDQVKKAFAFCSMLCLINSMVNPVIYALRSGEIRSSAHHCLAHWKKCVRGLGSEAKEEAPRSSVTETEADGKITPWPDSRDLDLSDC
# ABHD6, sequence (Q9BV23 whole entry, species assumed): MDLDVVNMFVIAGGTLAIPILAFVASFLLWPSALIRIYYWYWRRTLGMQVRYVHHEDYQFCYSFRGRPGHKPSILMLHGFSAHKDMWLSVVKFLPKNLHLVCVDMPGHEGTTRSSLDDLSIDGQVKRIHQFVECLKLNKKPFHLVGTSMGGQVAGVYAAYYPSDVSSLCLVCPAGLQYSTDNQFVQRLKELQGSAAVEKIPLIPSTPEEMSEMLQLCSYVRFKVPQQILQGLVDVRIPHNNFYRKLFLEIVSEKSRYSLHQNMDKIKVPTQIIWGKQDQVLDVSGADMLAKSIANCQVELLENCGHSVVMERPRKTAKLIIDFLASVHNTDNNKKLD
# hCB1R, sequence (P21554 whole entry): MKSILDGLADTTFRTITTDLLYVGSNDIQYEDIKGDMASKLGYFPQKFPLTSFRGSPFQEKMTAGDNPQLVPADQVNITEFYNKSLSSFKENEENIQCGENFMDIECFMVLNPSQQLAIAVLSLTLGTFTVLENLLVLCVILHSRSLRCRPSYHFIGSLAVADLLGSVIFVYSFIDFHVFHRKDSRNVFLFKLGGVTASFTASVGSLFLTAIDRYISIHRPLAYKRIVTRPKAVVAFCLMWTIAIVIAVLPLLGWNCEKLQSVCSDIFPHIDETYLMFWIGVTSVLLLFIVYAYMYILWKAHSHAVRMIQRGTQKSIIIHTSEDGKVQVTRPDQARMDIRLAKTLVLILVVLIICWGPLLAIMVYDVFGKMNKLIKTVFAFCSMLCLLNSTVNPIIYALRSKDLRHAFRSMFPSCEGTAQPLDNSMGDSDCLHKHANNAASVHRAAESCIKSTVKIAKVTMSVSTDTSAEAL
smiles,measurement,setting,value
Cn1c(C(C)(C)C)cc(=NC(=O)c2cc(C(F)(F)F)ccc2OCC(C)(C)O)n1CC1CCC1 [RNB-61],EC50,[1],> 10 µM
same,IC50,"[2]; Table S1, read-out: ABHD6 (Ki, IC50)",> 10 µM
same,inhibition of EC hydrolysis by ABHD6,[2]; screening concentration 10 μM,did not inhibit
same,IC50,[3],> 50 µM
same,efflux ratio at 3 h,[4],26.8
same,GSH adducts (human liver microsomes),[5],did not form any adducts; also recorded: no adducts detected
same,half-life,"[6]; brain, iv, RNB-61 1 mg kg^–1 i.v. + tariquidar 5 mg kg^–1 i.v., read-out: brain T1/2 (converted)",8.42 h
same,Tmax,"[6]; brain, iv, RNB-61 1 mg kg^–1 i.v. + tariquidar 5 mg kg^–1 i.v., read-out: brain Tmax",0.53 h
same,Kp,"[6]; intravenous, ratio of AUClast in brain and plasma, + tariquidar 5 mg kg^–1, read-out: brain-plasma partition coefficient Kp",0.747
same,Cmax,"[6]; plasma, iv, RNB-61 1 mg kg^–1 i.v. + tariquidar 5 mg kg^–1 i.v.",737 ng/mL
same,AUC(0-inf),"[6]; plasma, iv, RNB-61 1 mg kg^–1 i.v. + tariquidar 5 mg kg^–1 i.v., read-out: plasma AUCinf",3560 ng·h/mL
same,AUC(0-t),"[6]; plasma, iv, RNB-61 1 mg kg^–1 i.v. + tariquidar 5 mg kg^–1 i.v., read-out: plasma AUClast",2510 ng·h/mL
same,clearance,"[6]; plasma, iv, RNB-61 1 mg kg^–1 i.v. + tariquidar 5 mg kg^–1 i.v., read-out: plasma CL (converted)",4.68 mL/min/kg
same,half-life,"[6]; plasma, iv, RNB-61 1 mg kg^–1 i.v. + tariquidar 5 mg kg^–1 i.v., read-out: plasma T1/2 (converted)",3.68 h
same,Tmax,"[6]; plasma, iv, RNB-61 1 mg kg^–1 i.v. + tariquidar 5 mg kg^–1 i.v., read-out: plasma Tmax",0.083 h
same,Emax,"[7]; CHO, percentage normalized to 1 μM CP55940, read-out: Emax cAMP inhibition",100%
same,EC50,"[7]; Table 1, mean ± SD, read-out: EC50 hCB2R (cAMP assay)",0.00031 ± 7e-05 µM
same,Emax cAMP inhibition,"[7]; percentage normalized to 1 μM CP55940, listed as RBN-61","same efficacy (Emax) as CP55,940"
